Tested on: subjects with non-restorative sleep (NRS)
Assay: Randomized, double-blind, placebo- and active-controlled 4-way crossover study in an NRS population: efficacy
Assay type: in vivo, human
Details: for RSQ-W Total Score, comparison with placebo: one-sided alpha 0.05; for RSQ-W Total Score, LS Mean (primary endpoint): po, 336 h
Method: STUDY DESIGN. […] Subjects were subsequently crossed over 3 times to receive the remaining treatments, each for 2 weeks followed by a 1—week washout period. […] Each treatment was administered at least 2 hours after a meal. DIAGNOSIS AND MAIN CRITERIA FOR INCLUSION. Subjects selected for the study were male and/or nonpregnant, nonlactating females between the ages of 18-64 years, inclusive, who regularly (≧3 times/week) awoke un-restored or un-refreshed for at least the previous 3 months, causing significant distress or impairment in social, occupational, or other important areas of functioning during the daytime.
EFFICACY & SAFETY EVALUATIONS. The primary endpoint in this study was the Restorative Sleep Questionnaire—Weekly (RSQ-W) Total Score at the end of each 2-week treatment period. The RSQ-W, below, is a patient-reported outcome measure of morning refreshment over the past week in which larger values of the total score correspond to greater refreshment. All remaining efficacy/outcomes endpoints were considered secondary. Safety data, including adverse event information, clinical laboratory values, physical examination, vital signs, and electrocardiograms (ECGs) were collected during the study.
STATISTICAL METHODS. The Full Analysis Set was used in the analyses of all efficacy/outcome endpoints. […] The Per-Protocol Analysis Set was used for sensitivity analyses of certain efficacy/outcome endpoints as appropriate. […] Protocol deviations included the major inclusion/exclusion criteria assessed prior to randomization and major protocol deviations or violations assessed after randomization. […] The Safety Analysis Set was used in the analyses of the safety data and consisted of all randomized subjects who took any study medication.
Each comparison was done at the nominal alpha=0.05 level (one-sided), recognizing that the probability of committing at least one Type I error could be greater than 0.05 but no more than 0.15.
MODEL-BASED SUMMARY. The primary endpoint in this study was the RSQ-W Total Score at the end of each 2-week treatment period. This endpoint was analyzed using a linear model including sequence, period, and treatment as fixed factors, and subject within sequence and within-subject error as random factors. First-order carryover effects were explored and tested at the 10% nominal level of significance. Pair-wise comparisons were made based on the final linear model. The point estimates and 90% confidence intervals (Cis) for the placebo-adjusted treatment effects were constructed using the least squares (LS) means and appropriate standard errors.
DESCRIPTIVE SUMMARY. For each item and Total Score of the RSQ-W, descriptive statistics were provided by treatment and visit.
For secondary/exploratory purposes, certain secondary efficacy endpoints were analyzed with model-based statistical procedures. […] All comparisons are considered secondary/exploratory, and each was done at the nominal alpha=0.05 level (one-sided). No multiple comparison adjustment was made. All secondary efficacy endpoints were summarized descriptively. For secondary/exploratory purposes, appropriate model-based statistical procedures similar to those for the primary endpoint were used to analyze the following scales and subscales: • Restorative Sleep Questionnaire—Daily (RSQ-D, below): weekly averages of Total Score; • Daytime Consequences of Sleep Questionnaire (DCSQ): Total Score; • Multidimensional Assessment of Fatigue (MAF): Global Fatigue Index, Impact Subscale; • Subjective Sleep Questionnaire (SSQ): Sleep Quality; • Sheehan Disability Scale (SDS): Total Score; • SF-36v2: Mental Component Summary, Physical Component Summary, Vitality Subscale; • Clinical Global Impression of Change (CGIC): Status Score; and • Patient Global Impression of Change (PGIC): Status Score.

[1] = COMPOUND A doses (25 mg and 50 mg)

Cc1ccc(-c2nc3ccc(C)cn3c2CC(=O)N(C)C)cc1 [zolpidem, reference compound]
RSQ-W Total Score, comparison with placebo (zolpidem 10 mg): not statistically significantly different from placebo

C[C@H]1CC(CN)(CC(=O)O)C[C@@H]1C [COMPOUND A, (3S,4S)-(1-aminomethyl-3,4-dimethyl-cyclopentyl)-acetic acid]
RSQ-D Total Score at Week 2 (COMPOUND A 25 mg): 61.5 | RSQ-W Total Score, comparison with placebo (COMPOUND A 25 mg): statistically significantly different from placebo | Evening Functioning Scale (COMPOUND A dose groups, similar level of functioning as with zolpidem): better functioning than while taking placebo | MAF Impact Subscale score at Week 2, comparison with placebo [1]: not statistically significantly different from placebo | RSQ-D Total Score at Week 2, comparison with placebo [1]: no statistically significant differences from placebo | RSQ-W Total Score, LS Mean (primary endpoint) (25 mg): 63.6 | RSQ-W Total Score, LS Mean (primary endpoint) (50 mg): 62.5 | Treatment effect relative to placebo on the primary endpoint, the RSQ-W (conclusion) (subjects with non-restorative sleep, no dose stated): positive treatment effect relative to placebo

From patent US20120065265A1, “ALPHA-2-DELTA LIGANDS FOR NON-RESTORATIVE SLEEP” (Pfizer Inc., priority 2006, published 2012)
